Like-named read-outs stand apart in the source and are kept apart here.
Legend:
Phh-RDL [1] = molecular target: T1, Phh-RDL (Pediculus humanus humanus, UniProt A0A894T8E6); assay: Two-electrode voltage-clamp on Xenopus laevis oocytes expressing Phh-RDL; type: cell-based; settings: for concentration at which GABA-elicited currents were completely inhibited: 100 μM GABA
Procedure: (§1) Defolliculated Xenopus laevis oocytes were purchased from Ecocyte Bioscience and maintained in incubation solution (100 mM NaCl, 2 mM KCl, 1.8 mM CaCl2.2H2O, 1 mM MgCl2.6H2O, 5 mM HEPES, 2.5 mM C3H3NaO3, pH 7.5 supplemented with penicillin 100 U/mL and streptomycin 100 μg/mL) at 19°C. Each oocyte was microinjected with 57 ng of cRNA encoding Phh-GluCl or Phh-RDL using a Drummond nanoject II microinjector. Three to five days after cRNA injection, two-electrode voltage-clamp recordings were performed with an oocyte clamp OC-725C amplifier (Warner instrument) at a holding potential of -80mV or -60 mV to assess the expression of the GluCl or RDL channels. Currents were recorded and analyzed using the pCLAMP 10.4 package (Molecular Devices). Concentration-response relationships for agonists were carried out by challenging oocytes with 10 s applications of increasing concentrations of compounds. […] For Phh-GluCl, the dose-response relationship for ivermectin was performed by applying each concentration of ivermectin for 20–30 s. Each oocyte received only one ivermectin concentration (≤ 30 nM) followed with a high ivermectin concentration (≥ 100 nM). Data were normalized to a first 100 μM glutamate apllication. […] Concentration-response curves for agonists were fitted with the following equation: Y=100/1+10^H(logEC50−X)
Where Y is the normalized response, H is the Hill slope and X is the logarithm of concentration. The same equation was used for the concentration-response curves for antagonists by replacing logEC50 by logIC50. Results are expressed as mean +/- SEM and statistical analysis were performed using One-Way ANOVA with Tukey’s Multiple Comparisons Test. […] The corresponding concentration response curves were fitted using the following four parameter Hill equation: Y=Bottom+(Top−Bottom)/1+10^H(LogEC50−X)

[2] = test system: human adult body lice (Pediculus humanus humanus); assay: Toxicity bioassay on adult human body lice (filter paper contact, survival and immobilization); type: in vivo; settings: for lice killed or immobilized (death or knockdown rate): adult lice n = 44
Procedure: (§2) The colony of human body lice (Pediculus humanus humanus) were provided by Kosta Y. Mumcuoglu from the Kuvin Center for the Study of Infectious and Tropical Diseases, Hebrew University-Hadassah Medical School, Jerusalem, Israel. This laboratory-reared colony adapted to rabbit blood were fed four times per week for 20–30 min on rabbits and maintained at 30 ± 1°C and 60–70% relative humidity without exposure to any drugs. […] Nits (50 to 190 per condition) were incubated with lotilaner or ivermectin and hatching was monitored between six and nine days. Water and solution of 1% DMSO were used as negative controls. Pictures were recorded with a Motic Digital Microscope 143 Series and the Motic Image Plus 3.0 software.

Phh-GluCl = Phh-GluCl (Pediculus humanus humanus, UniProt A0A894TL71); assay: Two-electrode voltage-clamp on Xenopus laevis oocytes expressing Phh-GluCl; type: cell-based
Procedure: as §1

nits of human body lice = assay: Nit hatching test; type: in vivo, Pediculus humanus humanus; settings: 100 μM, hatching between six and nine days after application, compared with water and 1% DMSO
Procedure: as §2

Phh-RDL [3] = molecular target: T1, Phh-RDL; assay: Two-electrode voltage-clamp on Xenopus laevis oocytes expressing Phh-RDL; type: cell-based; settings: 1 μM ivermectin, 90 s application
[4] = antagonism of 100 μM GABA current, 90 s preincubation, read-out: IC50

Phh-GluCl, sequence (A0A894TL71 entry or part of it): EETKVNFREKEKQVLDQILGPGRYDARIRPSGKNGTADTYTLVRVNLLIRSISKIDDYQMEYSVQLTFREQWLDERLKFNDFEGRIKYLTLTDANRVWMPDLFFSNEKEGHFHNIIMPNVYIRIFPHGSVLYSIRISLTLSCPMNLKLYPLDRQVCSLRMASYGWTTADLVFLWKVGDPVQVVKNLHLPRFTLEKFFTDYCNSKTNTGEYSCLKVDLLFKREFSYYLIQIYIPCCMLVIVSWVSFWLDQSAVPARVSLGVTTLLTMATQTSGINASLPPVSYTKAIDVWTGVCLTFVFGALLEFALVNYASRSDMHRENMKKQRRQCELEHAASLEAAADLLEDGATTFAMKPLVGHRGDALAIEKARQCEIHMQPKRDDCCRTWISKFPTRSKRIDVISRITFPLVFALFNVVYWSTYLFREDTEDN
T1 sequence (A0A894T8E6 entry or part of it): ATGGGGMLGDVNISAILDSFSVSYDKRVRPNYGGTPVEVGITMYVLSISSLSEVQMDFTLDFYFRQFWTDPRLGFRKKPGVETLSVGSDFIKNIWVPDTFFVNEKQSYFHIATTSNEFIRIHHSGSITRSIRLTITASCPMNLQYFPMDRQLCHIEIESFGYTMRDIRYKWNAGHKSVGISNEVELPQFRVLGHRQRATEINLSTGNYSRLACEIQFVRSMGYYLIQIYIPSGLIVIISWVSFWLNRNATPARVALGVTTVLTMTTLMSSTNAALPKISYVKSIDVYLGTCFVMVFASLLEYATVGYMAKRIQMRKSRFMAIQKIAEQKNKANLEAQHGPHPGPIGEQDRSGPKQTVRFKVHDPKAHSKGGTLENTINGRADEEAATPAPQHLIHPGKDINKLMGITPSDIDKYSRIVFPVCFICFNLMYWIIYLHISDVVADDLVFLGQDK

NCCCC(=O)O [GABA, γ-aminobutyric acid]
EC50 (Phh-RDL [1]): 16000 nM | Hill coefficient (Phh-RDL [1]; GABA concentration-response curve): 2.3 +/- 0.1 | Emax (Phh-RDL [1]; read-out: maximum current amplitude): 97.95 ± 0.69%

N#Cc1nn(-c2c(Cl)cc(C(F)(F)F)cc2Cl)c(N)c1[S+]([O-])C(F)(F)F (stereo not drawn) [fipronil]
lice killed or immobilized (death or knockdown rate) ([2]; 100 μM, 24 h): 91% | IC50 (Phh-RDL [1]): 138 ± 35.1 nM | agonist effect (Phh-RDL [1]): no agonist effect

N[C@@H](CCC(=O)O)C(=O)O [glutamate]
EC50 (Phh-GluCl): 9300 nM | Hill coefficient (Phh-GluCl; glutamate concentration-response curve): 1.9 +/- 0.5

Cc1cc(C2=NO[C@@](c3cc(Cl)c(Cl)c(Cl)c3)(C(F)(F)F)C2)sc1C(=O)NCC(=O)NCC(F)(F)F [lotilaner]
lice killed ([2]; 1 μM, 24 h, adult lice): 14% | death rate of lice ([2]; 100 μM, 3 h, adult lice): death of all lice | effect on nit hatching (nits of human body lice): absence of efficacy | concentration without effect on Phh-GluCl (30 μM) as multiple of the IC50 for Phh-RDL (Phh-GluCl; 30 μM): 737 fold | agonist effect (current elicited) (Phh-GluCl; 1 to 30 μM): did not elicit any current | inhibitory effect on glutamate-evoked currents (Phh-GluCl; 1 to 30 μM, co-application with 100 μM glutamate): no significant inhibitory effect | agonist effect (Phh-RDL [1]): no agonist effect | type of inhibition (Phh-RDL [1]; competitive assay, GABA dose-response with 1 nM and 10 nM lotilaner): non-competitive antagonist | IC50 (Phh-RDL [1]; read-out: IC50): 40.7 nM

ivermectin
death rate of lice ([2]; 10 μM, 24 h, adult lice): 100% | death rate of lice ([2]; 100 μM, 3 h, adult lice): 30% | lice killed or immobilized (death or knockdown rate) ([2]; 100 μM, 24 h): 100% | maximum agonist effect as % of the 1 mM response (Phh-RDL [3]): 7.9 +/- 1.3% | effect on nit hatching (nits of human body lice): absence of efficacy | lowest concentration at which slow activation of the receptor was observed (Phh-GluCl): 10 nM | reversibility of the agonist effect (Phh-GluCl): not reversible | current as % of the 1 mM glutamate-elicited current (Phh-GluCl; 1 μM ivermectin): 86.5 +/- 8.2% | EC50 (Phh-GluCl; agonist, normalized to a first 100 μM glutamate application, read-out: EC50): 78.5 ± 30.2 nM | IC50 on RDL receptor relative to EC50 for Phh-GluCl (Phh-RDL [1]): 4 fold | effect on GABA current at low concentration (potentiation) (Phh-RDL [1]; 100 nM ivermectin coapplied with 3 μM GABA): increased the current amplitude | mode of action at higher concentration (Phh-RDL [1]; 1 μM ivermectin): both an agonistic and antagonistic effect | concentration at which GABA-elicited currents were completely inhibited (Phh-RDL [1]): 3 µM | reversibility of the currents elicited (Phh-RDL [1]; 0.3 to 30 μM, 90 seconds): not reversible | IC50 (Phh-RDL [1]; [4]): 342 ± 14 nM

picrotoxin
lice killed or immobilized (death or knockdown rate) ([2]; 100 μM, 24 h): not efficient to kill the lice | agonist effect (Phh-RDL [1]): no agonist effect | concentration at which GABA-elicited currents were completely inhibited (Phh-RDL [1]): 30 µM | IC50 (Phh-RDL [1]; [4]): 1160 ± 230 nM

Source: publication PMC7891696, “The molecular targets of ivermectin and lotilaner in the human louse Pediculus humanus humanus: New prospects for the treatment of pediculosis” (PLoS Pathogens, 2021)
